Experimental findings from US10894777B2, “TG2 inhibitor piperazine compounds and uses thereof” (UNIVERSITY OF OTTAWA, priority 2016, dated 2021) are described below.

In test [1] the target is hTG1 (Homo sapiens, UniProt P22735). In words: Colorimetric transamidase activity assay (AL5 substrate), hTG1. The class given is biochemical. The following applies: Table 9; Kitz and Wilson conditions. As for the experimental part: (§1) Selectivity of certain irreversible inhibitors over other members of the transglutaminase family was assessed. […] Inhibitors were tested using a continuous colorimetric assay (Leblanc, A. et al., Biochemistry (2001), 40 (28): 8335-8342) for hTG1 and hTG6 and a commercially available continuous fluorescent assay that utilizes a peptidic FRET quenched substrate (Oertel, K. et al., Anal. Biochem. (2007), 367 (2): 152-158; Király, R. et al., Amino Acids (2016), 48 (1): 31-40) for the other transglutaminases, FXIIIa and hTG3. The rate constant of enzyme inactivation (kobs) for a specific concentration of inhibitor was obtained using Kitz and Wilson conditions (Kitz, R. et al., J. Biol. Chem. (1962), 237: 3245-49). Inhibitor concentrations were adjusted to account for competition with substrates in each enzymatic reaction.
hTG1, sequence (P22735 whole entry): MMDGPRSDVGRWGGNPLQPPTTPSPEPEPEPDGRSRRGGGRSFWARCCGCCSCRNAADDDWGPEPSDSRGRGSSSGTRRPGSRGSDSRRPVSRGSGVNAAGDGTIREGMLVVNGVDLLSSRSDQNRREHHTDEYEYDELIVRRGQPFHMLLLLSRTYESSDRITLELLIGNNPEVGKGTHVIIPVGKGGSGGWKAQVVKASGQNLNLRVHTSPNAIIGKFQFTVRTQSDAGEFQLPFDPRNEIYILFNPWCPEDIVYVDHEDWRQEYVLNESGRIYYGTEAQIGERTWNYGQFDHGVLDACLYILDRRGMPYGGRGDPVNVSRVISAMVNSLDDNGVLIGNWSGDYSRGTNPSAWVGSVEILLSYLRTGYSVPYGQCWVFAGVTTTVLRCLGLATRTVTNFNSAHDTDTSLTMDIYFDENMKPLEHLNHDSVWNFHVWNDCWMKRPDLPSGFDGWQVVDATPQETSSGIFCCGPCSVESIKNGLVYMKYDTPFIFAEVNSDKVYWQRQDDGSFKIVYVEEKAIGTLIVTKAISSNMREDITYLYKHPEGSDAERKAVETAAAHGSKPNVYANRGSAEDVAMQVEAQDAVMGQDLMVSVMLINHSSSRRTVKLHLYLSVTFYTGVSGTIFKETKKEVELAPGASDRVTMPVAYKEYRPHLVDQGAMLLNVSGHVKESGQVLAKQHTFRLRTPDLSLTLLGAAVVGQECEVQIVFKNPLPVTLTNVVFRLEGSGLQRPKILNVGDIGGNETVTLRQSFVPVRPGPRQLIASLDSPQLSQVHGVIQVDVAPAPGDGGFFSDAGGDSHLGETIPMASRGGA
In Vitro Assays. Colorimetric transamidase activity assay.

The target of test [2] is T1, FXIIIa (Homo sapiens, UniProt P00488).
T1 construct: purchased Zedira
T1 sequence (P00488 39-732 limits assumed): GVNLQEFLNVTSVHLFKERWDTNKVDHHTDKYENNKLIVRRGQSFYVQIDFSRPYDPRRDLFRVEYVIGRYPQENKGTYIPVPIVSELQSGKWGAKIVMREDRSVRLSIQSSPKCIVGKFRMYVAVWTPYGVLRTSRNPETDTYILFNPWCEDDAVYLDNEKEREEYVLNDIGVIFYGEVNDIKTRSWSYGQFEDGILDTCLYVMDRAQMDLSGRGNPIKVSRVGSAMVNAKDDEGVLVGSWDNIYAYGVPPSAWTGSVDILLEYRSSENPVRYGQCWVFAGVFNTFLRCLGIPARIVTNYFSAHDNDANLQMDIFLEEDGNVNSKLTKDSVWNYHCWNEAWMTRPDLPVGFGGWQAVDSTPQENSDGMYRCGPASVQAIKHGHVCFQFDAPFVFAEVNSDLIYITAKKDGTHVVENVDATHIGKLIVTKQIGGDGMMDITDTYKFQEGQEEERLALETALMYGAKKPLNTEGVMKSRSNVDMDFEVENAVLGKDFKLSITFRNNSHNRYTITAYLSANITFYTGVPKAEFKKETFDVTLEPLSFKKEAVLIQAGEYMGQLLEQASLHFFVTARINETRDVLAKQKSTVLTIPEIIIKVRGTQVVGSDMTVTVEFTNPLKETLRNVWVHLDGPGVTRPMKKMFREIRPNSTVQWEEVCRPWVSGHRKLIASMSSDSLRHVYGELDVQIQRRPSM
In words: Fluorescence isopeptidase activity assay (A101 probe), FXIIIa. The class given is biochemical. Here is the method: as §1
Fluorescence isopeptidase activity assay. The isopeptidase activity of pre-activated TG3a and FXIIIa (purchased from Zedira) was measured via a fluorescence-based assay (Király, R. et al., Amino Acids (2016), 48 (1): 31-40) using the commercially available peptidic FRET quenched probe A101 from Zedira. Briefly, the final concentration in the reaction mixture contained 50 mM Tris (pH 7.0), 10 mM CaCl2, 100 mM NaCl, 2.8 mM TCEP, 50 μM A101 and 14 mM H-Gly-OMe. The reaction was monitored at 25° C. using a BioTek Synergy 4 plate reader (Ex/Em: 318/413 nm).

Test [3] has as its system U251 cells. Briefly: Agarose colony formation assay, U251 cells. It counts as cell-based, human. The following applies: 10 μM, 2 weeks. Here is the method: Agarose colony formation assay. Agarose colony formation assay was conducted as described (Horman, S. R. et al., J. Biomol. Screen 18(10):1298-308, 2013; Zhang, K. et al., Tumour Biol. 35(3):2537-48, 2014) using 6-well plates and 5,000 cells in each well. 10 μM NC9 or DMSO was added to every layer at the start of the experiments. 2 mL liquid MEM containing 10 μM NC9 or DMSO was used to cover the agarose and it was changed 3 times a week. Colony growth was monitored every day and at the end of 10-15 days, the colonies were fixed with 4% paraformaldehyde, stained with 0.005% crystal violet, washed with PBS twice and 40 random pictures were taken from each treatment group. A person blinded for the treatments measured the area of the colonies using ImageJ program and the volumes were calculated from the area data under the assumption that the colonies are perfect spheres. The volumes were used to compare the effect of NC9 on colony growth.

In test [4] the test system is A431 cells. Briefly: Spheroid formation assay, A431 cells. It counts as cell-based, human. Particulars: 20 μM, 48 h on day 8 spheroids. As for the experimental part: In (A), it is shown that A431-derived ECS cells have elevated TG2 and mesenchymal markers. A431 cells (40,000 cells/well) were grown in spheroid media in monolayer conditions or as non-attached spheroids (ECS cells) for 10 d. Cells were harvested and lysates prepared for immunoblot. In (B), A431 cells were electroporated with 3 μg of control- or TG2-siRNA and at 72 h extracts were prepared to assay TG2 and EMT marker level. In (C), A431-derived ECS cells were electroporated with 3 μg of the indicated siRNA and then grown as spheroids for 96 h. […] In (D), A431 cells (500,000 cells/well) were plated in monolayer culture in spheroid media in 100 mm dishes. The following day, at time zero, 0 or 20 μM NC9 was added with fresh addition of medium and NC9 at 24 h. At 48 h the cells were harvested and extracts prepared for immunoblot. In (E), A431 cells were pretreated in 0 or 20 μM NC9 for 2 h and then harvested and 25,000 cells were seeded in the upper chamber above a matrigel-coated membrane in 1 mL of growth medium containing 1% FCS in a Millicell chamber. […] Confluent monolayers were then scratched with a 10-μL pipette tip, rinsed, and width of the wound was monitored for 0-14 h.
Spheroid formation assay. […] Spheroid size and number was monitored with time in culture as previously described (Adhikary, G. et al., PLoS One 8:e84324, 2013).

Test [5] concerns procaspase 3. Briefly: Immunoblot of procaspase 3 cleavage, SCC-13 spheroids. It counts as cell-based, human. The following applies: 8 day spheroids, 20 μM. Here is the method: (§2) In (A), SCC-13 cells (40,000) were plated in non-adherent six well dishes, grown for 8 days in spheroid medium, and then NC9 was added and spheroid number was monitored at 0-48 hours. In (B), spheroids were grown for 10 days, treated for 48 hours with indicated level of NC9 and photographed. In (C), SCC-13 cells were plated at 40,000 cells per well in non-adherent six well dishes and after 10 days the spheroids were treated with 0-20 μM NC9 for 0-72 hours before trypan blue exclusion viability assay. In (D), SCC-13 spheroids were grown for 10 days, treated with 0 or 20 μM NC9 for 48 hours, and TG2 level was assayed by immunoblot. In (E), SCC-13 cells were grown as monolayers in spheroid medium and TG2 activity was monitored by FC incorporation assay as outlined in the Materials and Methods for Example 7. In (F), SCC-13 cell 8 day spheroids were treated with […] NC9 and cells were harvested at the indicated times for immunoblot detection of procaspase 3 and cleaved caspase 3. In all panels, the values are mean±SEM, n=3, p<0.05.
(In general: Immunoblotting shows a protein as a band on a membrane.)

The test system of test [6] is TG2 level. Briefly: TG2 level immunoblot, SCC-13 spheroids. The class given is cell-based, human. The following applies: 20 μM, 48 hours. Here is the method:
as §2

Structures are written as SMILES.

`C=CC(=O)NCCCC[C@H](NC(=O)OCc1ccccc1)C(=O)NCCOCCOCCNS(=O)(=O)c1cccc2c(N(C)C)cccc12` [NC9]: the “kobs (10^−3 min^−1), TG1” value in test [1] is 78.9 ± 5.9 10^−3 min^−1. The “kobs (10^−3 min^−1), FXIIIa” value in test [2] (Table 9, Kitz and Wilson conditions) is recorded as 5.91 ± 1.59 10^−3 min^−1. Moreover, the “colony growth, U251” value in test [3] is “significantly reduced the growth”. In test [4], the spheroid formation entry is reported as “reduced spheroid formation”. In addition, the “time to initiation of procaspase 3 cleavage after addition” value in test [5] is listed as at most 1 h. Also, in test [6], the TG2 level result is reported as “not associated with reduced TG2 level”.
On to `C=CC(=O)NCCCC[C@H](NC(=O)OCc1ccccc1)C(=O)N1CCN(S(=O)(=O)c2cccc3c(N(C)C)cccc23)CC1` [VA4, (S)-benzyl(6-acrylamido-1-(4-((5-(dimethylamino)naphthalen-1-yl)sulfonyl)piperazin-1-yl)-1-oxohexan-2-yl)carbamate], for which, in test [2] (from kobs), the “less reactive with FXIIIa compared to hTG2” value is reported as 80 fold.
